Laboratory results: paper PMC8286831, “Identifying SARS-CoV-2 antiviral compounds by screening for small molecule inhibitors of nsp13 helicase” (Biochemical Journal, 2021)
“Also recorded” adds a separate entry of the source. Counter-ions that a name gives are not always drawn. Like-named read-outs stand apart in the source and are kept apart here.

Assays:
[1] = biological target: SARS-CoV-2 nsp13 helicase (Severe acute respiratory syndrome coronavirus 2, UniProt P0DTD1); assay: biochemical; format: biochemical
[2] = biological target: T1, SARS-CoV-2 RdRp holoenzyme (Severe acute respiratory syndrome coronavirus 2, UniProt P0DTD1); assay: FRET-based RdRp strand displacement assay; format: biochemical
T1 construct: (Sf nsp12-3F/7L8 preincubated with Sf 7H8 at a 1:3 ratio); 3F (3xFlag) (C); made in house; host or cells: 'Sf', read as Spodoptera frugiperda insect cells (my inference from the prefix); details are in Bertolin et al

[3] = read-out: IC50 + 0.02% Tween-20
[4] = RNA (RdRp substrate), 0.3 mM each NTP, 0.02% Tween-20 in RdRp assay buffer
[5] = RNA (nsp13 substrate), 0.3 mM ATP, 0.02% Tween-20 in RdRp assay buffer
[6] = IC50 0.02% Tween-20 + (presence)
[7] = IC50 0.02% Tween-20 − (absence)
[8] = RNA (nsp13 substrate), 0.3 mM ATP, 0.02% Tween-20 in RdRp assay buffer, read-out: IC50 nsp13
[9] = RNA (RdRp substrate), 0.3 mM each NTP, 0.02% Tween-20 in RdRp assay buffer, read-out: IC50 RdRp

Question: For `NC(Cc1cc(O)c(O)cc1O)C(=O)O` (racemic) [6-Hydroxy-DL-DOPA], which “IC50 + 0.02% Tween-20” value [1] is on record?
Answer: Quenching

Question: What about the “IC50 No detergent” value [1] of the same compound?
Answer: Quenching

Question: Which “IC50 nsp13” value [1] does the source give for `CN(C)CC[C@H](CSc1ccccc1)Nc1ccc(S(=O)(=O)NC(=O)c2ccc(N3CCC(C)(C)CC3)cc2)cc1[N+](=O)[O-]` [A-385358] here?
Answer: No inhibition

Question: What about the IC50 [1, 3] of the same compound?
Answer: > 250 µM

Question: And the IC50 ([1]; read-out: IC50 No detergent)?
Answer: 3.3 µM

Question: And the “IC50 RdRp” value [2, 4]?
Answer: did not inhibit RdRp; also recorded: No inhibition

Question: Which IC50 ([1]; IC50 + 0.02% Tween-20) does the source give for `CN(C)CC[C@H](CSc1ccccc1)Nc1ccc(S(=O)(=O)NC(=O)c2ccc(N3CCN(Cc4ccccc4-c4ccc(Cl)cc4)CC3)cc2)cc1[N+](=O)[O-]` [ABT-737] here?
Answer: > 250 µM

Question: And the IC50 ([1]; IC50 No detergent)?
Answer: 1.2 µM

Question: What about the “IC50 nsp13” value [1, 5] of the same compound?
Answer: No inhibition

Question: And the “IC50 RdRp” value [2, 4]?
Answer: No inhibition

Question: How did the “IC50 + 0.02% Tween-20” value [1] turn out when `CCN(CC)C(=O)c1ccc(C2=CC3(CCNCC3)Oc3cccc(O)c32)cc1` [ADL5859] was run?
Answer: No inhibition

Question: And the IC50 ([1]; IC50 No detergent)?
Answer: > 250 µM

Question: Which results are given for `Nc1ncnc2c1ncn2[C@@H]1O[C@H](COP(=O)(O)OP(=O)(O)OP(=O)(O)O)[C@@H](O)[C@H]1O` [ATP]?
Answer: Km ([1]; 2 nM FH-nsp13, 200 nM DNA substrate, read-out: Km for ATP with the DNA substrate): 110 µM; Km ([1]; 3 nM FH-nsp13, 200 nM RNA substrate, read-out: Km for ATP with the RNA substrate): 130 µM

Question: Which IC50 [1, 6] does the source give for `COc1ccc(-c2ccc3cc(C(=O)O)ccc3c2)cc1C12CC3CC(CC(C3)C1)C2` [Adapalene] here?
Answer: 5.5 µM

Question: What about the IC50 [1, 7] of the same compound?
Answer: 1.3 µM

Question: What about the IC50 ([1]; IC50 + 0.02% Tween-20) of the same compound?
Answer: 9.9 µM

Question: And the IC50 ([1]; IC50 No detergent)?
Answer: 3.7 µM

Question: And the IC50 ([1]; IC50 nsp13)?
Answer: 11 µM

Question: And the IC50 [2]?
Answer: 20 µM

Question: `Cc1cc(O[C@@H](CCC(F)(F)F)c2ccc(C(=O)NCCC(=O)O)cc2)cc(C)c1-c1ccc(C(C)(C)C)cc1` [Adomeglivant] was tested. Which IC50 ([1]; IC50 + 0.02% Tween-20) did it give?
Answer: 103 µM

Question: What about the IC50 ([1]; IC50 No detergent) of the same compound?
Answer: 5.3 µM

Question: And the IC50 [1, 8]?
Answer: > 100 µM

Question: What about the IC50 [2] of the same compound?
Answer: 39 µM

Question: With `CC(C)c1cc(C(C)C)c(CC(=O)NS(=O)(=O)Oc2c(C(C)C)cccc2C(C)C)c(C(C)C)c1` [Avasimibe] as the compound, how does the IC50 [1, 6] read?
Answer: 17 µM

Question: And the IC50 [1, 7]?
Answer: 1.3 µM

Question: And the IC50 ([1]; IC50 + 0.02% Tween-20)?
Answer: 13 µM

Question: And the IC50 ([1]; IC50 No detergent)?
Answer: 4 µM

Question: What about the IC50 [2] of the same compound?
Answer: 18 µM

Question: And the “IC50 RdRp” value [2, 4]?
Answer: also inhibited RdRp in a similar fashion

Question: For `O=C1/C(=C/c2ccc(O)c(Br)c2)CN(Cc2ccccc2)C/C1=C\c1ccc(O)c(Br)c1` [CARM1-IN-1], which IC50 [1, 8] is on record?
Answer: > 100 µM

Question: And the IC50 [1, 3]?
Answer: 126 µM

Question: What about the IC50 ([1]; read-out: IC50 No detergent) of the same compound?
Answer: 4.2 µM

Question: And the IC50 [2, 9]?
Answer: > 100 µM

Question: Which IC50 ([1]; IC50 + 0.02% Tween-20) does the source give for `CO/N=C(\C(=O)N[C@@H]1C(=O)N2C(C(=O)O)=C(CSC(=O)c3ccco3)CS[C@H]12)c1csc(N)n1` [Ceftiofur HCl] here?
Answer: > 250 µM

Question: What about the IC50 ([1]; IC50 No detergent) of the same compound?
Answer: > 250 µM

Question: For `CC(C)(C[C@H]1CN(S(=O)(=O)c2cccc(C(F)(F)F)c2)c2cc(-c3cc(F)cc(OC(F)F)c3)ccc2O1)C(=O)O` [Cintirorgon], which IC50 [1, 6] is on record?
Answer: 41 µM

Question: What about the IC50 [1, 7] of the same compound?
Answer: 2.1 µM

Question: And the IC50 ([1]; IC50 + 0.02% Tween-20)?
Answer: 38 µM

Question: What about the IC50 ([1]; IC50 No detergent) of the same compound?
Answer: 2.3 µM

Question: And the IC50 [1, 8]?
Answer: 97 µM

Question: What about the IC50 [2, 9] of the same compound?
Answer: 36 µM

Question: For `COc1cccc2c1C(=O)c1c(O)c3c(c(O)c1C2=O)C[C@@](O)(C(=O)CO)C[C@@H]3O[C@H]1C[C@H](N)[C@H](O)[C@H](C)O1` [Doxorubicin], which “IC50 + 0.02% Tween-20” value [1] is on record?
Answer: Artifact

Question: What about the “IC50 No detergent” value [1] of the same compound?
Answer: Artifact

Question: Which IC50 ([1]; IC50 + 0.02% Tween-20) does the source give for `CC/C=C\C/C=C\C/C=C\C/C=C\C/C=C\CCCC(=O)O` [Eicosapentaenoic acid] here?
Answer: 69 µM

Question: What about the IC50 ([1]; IC50 No detergent) of the same compound?
Answer: 14 µM

Question: And the IC50 [1, 8]?
Answer: 81 µM

Question: And the IC50 [2, 9]?
Answer: 29 µM

Question: For `CCCCCCCC/C=C/CCCCCCCC(=O)O` [Elaidic acid], which IC50 ([1]; IC50 + 0.02% Tween-20) is on record?
Answer: > 250 µM

Question: And the IC50 ([1]; IC50 No detergent)?
Answer: 8.6 µM

Question: And the “IC50 nsp13” value [1, 5]?
Answer: No inhibition

Question: And the “IC50 RdRp” value [2, 4]?
Answer: No inhibition

Question: What does the source list for `COc1cc2c(cc1Cc1cccc(Cl)c1F)c(=O)c(C(=O)O)cn2[C@H](CO)C(C)C` [Elvitegravir]?
Answer: IC50 ([1]; IC50 + 0.02% Tween-20): > 250 µM; IC50 ([1]; IC50 No detergent): 22 µM; nsp13 inhibition and detergent sensitivity ([1]; presence or absence of non-ionic detergent): clear inhibition only in the absence of detergent

Question: With `COC(=O)[C@@H]1CC2=CC(=O)CC[C@]2(C)[C@@]23O[C@@H]2C[C@@]2(C)[C@@H](CC[C@@]24CCC(=O)O4)[C@H]13` [Eplerenone] as the compound, how does the “IC50 + 0.02% Tween-20” value [1] read?
Answer: No inhibition

Question: And the IC50 ([1]; IC50 No detergent)?
Answer: > 250 µM

Question: For `CC1=C(/C=C/C(C)=C/C=C/C(C)=C/C(=O)Nc2ccc(O)cc2)C(C)(C)CCC1` [Fenretinide], which IC50 [1, 6] is on record?
Answer: > 250 µM

Question: And the IC50 [1, 7]?
Answer: 7.3 µM

Question: What about the IC50 ([1]; IC50 + 0.02% Tween-20) of the same compound?
Answer: > 250 µM

Question: What about the IC50 ([1]; IC50 No detergent) of the same compound?
Answer: 9.1 µM

Question: And the “IC50 nsp13” value [1, 5]?
Answer: No inhibition

Question: What about the “IC50 RdRp” value [2, 4] of the same compound?
Answer: No inhibition

Question: Which results are given for `CC1(C)O[C@@H]2C[C@H]3[C@@H]4C[C@H](F)C5=CC(=O)C=C[C@]5(C)[C@@]4(F)[C@@H](O)C[C@]3(C)[C@]2(C(=O)CO)O1` [Fluocinolone Acetonide]?
Answer: IC50 + 0.02% Tween-20 [1]: No inhibition; IC50 ([1]; IC50 No detergent): > 250 µM
